Values quoted from earlier work in patent US20110166187A1, “METHODS OF USING SUSTAINED RELEASE AMINOPYRIDINE COMPOSITIONS” (priority 2004, published 2011).

System: voltage dependent, neuronal potassium channels

In the case of `Nc1ccncc1` [fampridine, 4-aminopyridine], the “concentrations at which it appears to be a specific blocker of voltage dependent, neuronal potassium channels” value is given as 1 to 2 µM.
